# Values joined by “and” are separate entries in the source; they are usually repeats but may differ in a detail not shown here. Equal values may be shown once. Where a name gives a salt, the structure may show the parent alone. Marks after values point to notes of the source that are not given here.
# System: patients with Class III/IV heart failure
# Test: BEST trial, bucindolol vs placebo, clinical outcomes incl. DNA substudy and norepinephrine-change analyses
# Assay type: in vivo
# Settings: for hazard ratio for hospitalizations, bucindolol vs placebo: adjusted for position 49; for Crude mortality: bucindolol group; for Mortality (M) hazard ratio, NE change quartile 2nd/1st / Mortality (M) hazard ratio, NE change quartile 3rd/1st / Mortality (M) hazard ratio, NE change quartile 4th/1st / Mortality + CHF hospitalization (M + H) hazard ratio, NE change quartile 2nd/1st / Mortality + CHF hospitalization (M + H) hazard ratio, NE change quartile 3rd/1st / Mortality + CHF hospitalization (M + H) hazard ratio, NE change quartile 4th/1st: within bucindolol group; for hazard ratio for survival, bucindolol vs placebo: adjusted for position 49 variants, age, sex, race
# Excerpt: Patients who participated in the Beta Blocker Evaluation of Survival Trial (BEST), (Lowes et al., 2002) and who consented for DNA substudies, were genotyped at the coding β1AR polymorphic sites. Enrollment in BEST was from May 31, 1995 to Dec. 31, 1998; the study design has been described in detail elsewhere (BEST Trial Investigators, 2001; and Lowes et al., 2002). Briefly, the study was a randomized, multicenter, placebo-controlled trial of the 3rd generation, nonselective β-blocker-vasodilator bucindolol (Bristow, 2000) in 2708 patients with Class III/IV heart failure (BEST Trial Investigators, 2001). Those receiving the active drug were administered 3 mg bucindolol twice daily for the first week, and up-titrated as tolerated on a weekly basis to 50 mg twice daily (or 100 mg twice daily for patients weighing >75 kg). Of the 2708 patients, 1040 consented for the substudy and had adequate DNA prepared from a blood sample. The study was approved by the BEST DNA Oversight Committee and the University of Cincinnati Institutional Review Board.
# DNA was extracted from whole blood using standard techniques (Jones, 1963). Genotyping was performed using methods exactly as previously described in detail (Small et al., 2002). For the β1AR, variations at coding nucleotides 145 and 1165 were delineated, which correspond to amino acids 49 and 389. These alleles are designated as β1-Ser49, β1-Gly49 and β1-Arg389, β1-Gly389. All the DNA samples were successfully genotyped at the β1AR-389 locus and 1030 were successfully genotyped at β1AR-49.
# The primary endpoints were all-cause mortality, hospitalizations adjudicated by an endpoints committee (BEST Trial Investigators, 2001) to be due to heart failure, and the combined endpoint of death or heart failure hospitalization. The variants at amino acid position 389 of the β1AR (Arg and Gly) were considered the primary genotypes hypothesized to influence […] efficacy. Continuous clinical variables are reported as mean ±SD, and comparisons were by t-test or Wilcoxon rank-sum tests. Categorical variables are reported as proportions and comparisons were by chi-square or Fisher's exact tests. Cumulative survival curves were constructed by Kaplan-Meier methods (Kaplan et al., 1958); and SAS (r) proprietary software, release 6.12. Cary, N.C.: SAS Institute, 1996). The Cox proportional-hazards regression model was used to examine the effects of treatment stratified by the indicated genotype. Results were adjusted for age, sex, race, and, as indicated, the β1-Gly49 polymorphism. Because of the limited number of comparisons, and an a priori hypothesis that was based on cell, transgenic, and other human studies […] Perez et al., 2003); and Wagoner et al., 2002), the P values <0.05 were considered to as significant, without adjustments for multiple comparisons.
# Norepinephrine levels at baseline, or the change at 3 months were used to predict survival and the combined endpoint of mortality+CHF hospitalization. Absolute and log transformed data were initially analyzed. Because of skewness in norepinephrine levels natural log (Ln) transformed data were used in multivariate Cox proportional hazards regression models.
# A Maximum Likelihood based method (Kalbfleisch et al., 1980) was used to categorize changes in norepinephrine into 3 groups for prediction of mortality or mortality+CHF hospitalization. This partitioning method finds the optimal split of norepinephrine values that maximize the likelihood of the resulting Cox proportional hazards model. In addition, a flexible cubic spline analysis (Green et al., 1994) was used to determine the shape and significance level of the relationship of norepinephrine changes at 3 months to survival.
# [1] = 1st quartile of absolute NE change
# [2] = 2nd quartile of absolute NE change
# [3] = 3rd quartile of absolute NE change
# [4] = 4th quartile of absolute NE change
# [5] = BEST α2c DEL carrier (n = 207/1036)
# [6] = BEST β1 389Arg/Arg + α2c DEL carriers (n = 73/1036)
# [7] = BEST β1 389Arg/Arg + α2c WT/WT (n = 418/1036)
# [8] = BEST β1 389 Gly carriers + DEL carriers (n = 134/1036)
# [9] = BEST β1 389 Gly carriers + α2c WT/WT (n = 411/1036)
# [10] = absolute NE change at 3 months, pg/ml
# [11] = β1 389Arg/Arg and α2c WT/WT patients
structure (smiles),measurement,setting,value
"CC(C)(Cc1c[nH]c2ccccc12)NCC(O)COc1ccccc1C#N (stereo not drawn) [bucindolol, (2-{2-hydroxy-3{{2-(3-indolyl)-1,1-dimethylethyl}amino}propoxy}-benzonitrile hydrochloride)]","bucindolol/placebo hazard ratio, mortality (M)",1st quartile of % NE change,1.03
same,"bucindolol/placebo hazard ratio, mortality + CHF hospitalization (M + H)",1st quartile of % NE change,1.14
same,"bucindolol/placebo hazard ratio, mortality (M)",[1],0.96
same,"bucindolol/placebo hazard ratio, mortality + CHF hospitalization (M + H)",[1],1.19
same,"bucindolol/placebo hazard ratio, mortality (M)",2nd quartile of % NE change,0.98
same,"bucindolol/placebo hazard ratio, mortality + CHF hospitalization (M + H)",2nd quartile of % NE change,1.39
same,"bucindolol/placebo hazard ratio, mortality (M)",[2],0.98
same,"bucindolol/placebo hazard ratio, mortality + CHF hospitalization (M + H)",[2],1.30
same,"bucindolol/placebo hazard ratio, mortality (M)",3rd quartile of % NE change,0.56
same,"bucindolol/placebo hazard ratio, mortality + CHF hospitalization (M + H)",3rd quartile of % NE change,0.65
same,"bucindolol/placebo hazard ratio, mortality (M)",[3],0.63
same,"bucindolol/placebo hazard ratio, mortality + CHF hospitalization (M + H)",[3],0.58
same,"bucindolol/placebo hazard ratio, mortality (M)",4th quartile of % NE change,0.90
same,"bucindolol/placebo hazard ratio, mortality + CHF hospitalization (M + H)",4th quartile of % NE change,0.66
same,"bucindolol/placebo hazard ratio, mortality (M)",[4],0.80
same,"bucindolol/placebo hazard ratio, mortality + CHF hospitalization (M + H)",[4],0.74
same,hazard ratio of subsequent mortality with norepinephrine reduction at 3 months (likelihood analysis),"153 bucindolol subjects, NE reduction ≧244.5 pg/ml",1.69
same,"hazard ratio for hospitalizations, bucindolol vs placebo",Arg389 homozygotes,0.63
same,"HF Hospitalization hazard ratio, bucindolol vs placebo",[5],0.76; 67 Ev
same,"Mortality + HF Hospitalization hazard ratio, bucindolol vs placebo",[5],0.89; 84 Ev
same,"HF Hospitalization hazard ratio, bucindolol vs placebo",BEST α2c WT/WT (n = 829/1036),0.74; 267 Ev
same,"Mortality + HF Hospitalization hazard ratio, bucindolol vs placebo",BEST α2c WT/WT (n = 829/1036),0.72; 341 Ev
same,"Mortality hazard ratio, bucindolol vs placebo",BEST α2c WT/WT (n = 829/1036),0.70; 155 Ev
same,"HF Hospitalization hazard ratio, bucindolol vs placebo","BEST β1 389Arg/Arg (n = 493/1040), hydrochloride",0.64 and 0.64; 154
same,"HF Hospitalization hazard ratio, bucindolol vs placebo",[6],0.81; 73 Ev
same,"Mortality + HF Hospitalization hazard ratio, bucindolol vs placebo",[6],0.85; 34 Ev
same,"Mortality hazard ratio, bucindolol vs placebo",[6],0.71; 13 Ev
same,"HF Hospitalization hazard ratio, bucindolol vs placebo",[7],0.59; 126 Ev
same,"Mortality + HF Hospitalization hazard ratio, bucindolol vs placebo",[7],0.61; 156 Ev
same,"Mortality hazard ratio, bucindolol vs placebo",[7],0.60; 69 Ev
same,"HF Hospitalization hazard ratio, bucindolol vs placebo",[8],0.62; 134 Ev
same,"Mortality + HF Hospitalization hazard ratio, bucindolol vs placebo",[8],0.81; 50 Ev
same,"Mortality hazard ratio, bucindolol vs placebo",[8],1.35; 24 Ev
same,"HF Hospitalization hazard ratio, bucindolol vs placebo",[9],0.93; 411 Ev
same,"Mortality + HF Hospitalization hazard ratio, bucindolol vs placebo",[9],0.86; 185 Ev
same,"Mortality hazard ratio, bucindolol vs placebo",[9],0.82; 86 Ev
same,Number of deaths (%),"Bucindolol Incr subgroup, n = 137",43 (31%)*
same,Number of deaths (%),"Bucindolol Inter subgroup, n = 551",114 (21%)
same,Number of deaths (%),"Bucindolol Redxn subgroup, n = 153",52 (34%)*
same,"hazard ratio for hospitalizations, bucindolol vs placebo",Gly389 carriers,0.85
same,Crude mortality,1st quartile of % NE change (< −30.2),25.2%
same,Crude mortality,1st quartile of absolute NE change (< −144 pg/ml),26.1%
same,Crude mortality,2nd quartile of % NE change (−30.2 to < −2.5),26.0%
same,Crude mortality,2nd quartile of absolute NE change (−144 to < −9 pg/ml),25.7%
same,Crude mortality,3rd quartile of % NE change (−2.5 to 31.1),18.8%
same,Crude mortality,3rd quartile of absolute NE change (−9 to 111 pg/ml),17.7* %
same,Crude mortality,4th quartile of % NE change (> 31.1),29.1%
same,Crude mortality,4th quartile of absolute NE change (> 111 pg/ml),28.6%
same,increased risk of subsequent mortality with marked norepinephrine reduction at 3 months,"bucindolol subgroup with NE reduction ≧244.5 pg/ml (Group 1) vs intermediate change group, hydrochloride",1.7 fold and 1.65 fold
same,"Mortality hazard ratio, Arg/Arg:Gly carrier","bucindolol-treated, BSL NE 64-356 pg/ml (146)",0.90
same,"Mortality hazard ratio, Arg/Arg:Gly carrier","bucindolol-treated, BSL NE 358-545 pg/ml (144)",0.74
same,"Mortality hazard ratio, Arg/Arg:Gly carrier","bucindolol-treated, BSL NE 546-2571 pg/ml (149)",0.68
same,"Mortality hazard ratio, Arg/Arg:Gly carrier","bucindolol-treated, Group 1, change in NE @ 3 mos <−244 (70)",1.07
same,"Mortality hazard ratio, Arg/Arg:Gly carrier","bucindolol-treated, Group 2, change in NE @ 3 mos −244 to 145 (248)",0.82
same,"Mortality hazard ratio, Arg/Arg:Gly carrier","bucindolol-treated, Group 3, change in NE @ 3 mos >145 (54)",0.36
same,relatively better mortality reduction of Arg homozygotes vs Gly carriers,"bucindolol-treated, increasing norepinephrine group (>145 pg/ml)",64%
same,"Mortality (M) hazard ratio, NE change quartile 2nd/1st",% NE change at 3 months,1.14
same,"Mortality (M) hazard ratio, NE change quartile 3rd/1st",% NE change at 3 months,0.77
same,"Mortality (M) hazard ratio, NE change quartile 4th/1st",% NE change at 3 months,1.19
same,"Mortality + CHF hospitalization (M + H) hazard ratio, NE change quartile 2nd/1st",% NE change at 3 months,1.18
same,"Mortality + CHF hospitalization (M + H) hazard ratio, NE change quartile 3rd/1st",% NE change at 3 months,0.91
same,"Mortality + CHF hospitalization (M + H) hazard ratio, NE change quartile 4th/1st",% NE change at 3 months,1.18
same,"Mortality (M) hazard ratio, NE change quartile 2nd/1st",[10],0.99
same,"Mortality (M) hazard ratio, NE change quartile 3rd/1st",[10],0.66
same,"Mortality (M) hazard ratio, NE change quartile 4th/1st",[10],1.15
same,"Mortality + CHF hospitalization (M + H) hazard ratio, NE change quartile 2nd/1st",[10],1.00
same,"Mortality + CHF hospitalization (M + H) hazard ratio, NE change quartile 3rd/1st",[10],0.83
same,"Mortality + CHF hospitalization (M + H) hazard ratio, NE change quartile 4th/1st",[10],1.10
same,increase in CV mortality,α2c DEL 322-325 and β1 389Gly carriers,36%
same,increase in cardiovascular mortality,α2c DEL 322-325 carriers,3%
same,increase in all-cause mortality,"α2c DEL 322-325 carriers who are β1 389Gly carriers, hydrochloride",36% and 35%
same,reduction in cardiovascular mortality,α2c WT/WT patients,41%
same,reduction in mortality plus HF hospitalization,α2c wild type patients,28%
same,reduction in all-cause mortality,"α2cAR wild type (WT/WT) patients, hydrochloride",29% and 30%
same,reduction in mortality,α2cAR wild type patients who are β1 389Gly carriers (nonsignificant),22%
same,mortality reduction,α2cAR-Del322-325 carriers with β1AR-389Arg/Arg,18%
same,increase in all-cause mortality,"α2cAR-Del322-325 carriers, hydrochloride",10% and 9%
same,reduction in all-cause mortality,[11],40%
same,reduction in cardiovascular mortality,[11],47%
same,reduction in mortality + heart failure hospitalization,[11],39%
same,reduction in cardiovascular mortality,β1 389Arg/Arg patients,46%
same,reduction in all-cause mortality,β1 389Gly carriers (nonsignificant),10%
same,reduction in cardiovascular mortality,β1 389Gly carriers (p=NS),22%
same,reduction in HF hospitalization,β1-389 Arg/Arg + α2c wild type patients,41%
same,"hazard ratio for survival, bucindolol vs placebo",β1-Arg389 homozygotes,0.62
same,"hazard ratio for survival, bucindolol vs placebo",β1-Gly389 carriers,0.89
same,reduction in all-cause mortality (improvement in survival),β1AR-389Arg/Arg patients,38%
